From article PMC10253456, “Investigating the Contribution of Major Drug-Metabolising Enzymes to Possum-Specific Fertility Control” (International Journal of Molecular Sciences, 2023)
Like-named read-outs stand apart in the source and are kept apart here.

Tests used:
[1] = tested on: UGT2B (heading: UGT2B4); assay: p-nitrophenol glucuronidation activity in pooled human liver microsomes; settings: human, pooled human liver microsomes (50 donors), pH 7.4, probe p-nitrophenol (0.5 mM final, from 50 µL of 5 mM in 500 µL)
[2] = tested on: UGT2B; assay: as above
[3] = tested on: UGT2B (heading: UGT2B4); assay: p-nitrophenol glucuronidation activity in mouse liver microsomes; settings: BALB/c, mouse
[4] = tested on: UGT2B; assay: as above
[5] = tested on: UGT2B; settings: avian; for % of control (UGT2B4 catalytic activity at 2-fold IC50) / UGT2B4 catalytic activity at 2-fold IC50: compound at estimated 2-fold IC50
[6] = tested on: CYP3A; assay: CYP3A catalytic activity (erythromycin N-demethylation) in possum liver microsomes; settings: for Percent control catalytic activity at estimated IC50 / Percent control catalytic activity at estimated 2-fold IC50: possum liver microsomes, initial screen n=1; for Percent control catalytic activity at estimated IC50: compounds without reported IC50 at 1 µM; for Percent control catalytic activity at estimated 2-fold IC50: compounds without reported IC50 at 5 µM; for % of control (catalytic activity at 2-fold IC50) / Catalytic activity at 2-fold IC50: possum, compound at estimated 2-fold IC50 (5 µM where none reported)
Method: (§1) Possums were collected from the Otago Peninsula (Dunedin) and the Okuti Valley, Banks Peninsula (Christchurch) in New Zealand in collaboration with the Otago Peninsula Biodiversity Group and Manaaki Whenua-Landcare Research, respectively. […] Possums were caged and humanely killed by a blow to the head, and the livers were harvested, snap-frozen in liquid nitrogen, and stored in a freezer at −80 °C until the preparation of microsomal fractions. […] Mice were euthanised by carbon dioxide inhalation and the livers were removed and microsomes prepared. […] The livers from avian species (mallards and a swan) were kindly donated by a local bird hunting group based in Dunedin, New Zealand. The livers from avian species were treated similarly to those mentioned above for the possum samples.
(§2) Microsomal preparation was carried out as previously described [76]. […] All procedures were performed at 0–4 °C. The liver samples were minced and homogenised in Buffer A (0.1 M Tris, 0.1 M potassium chloride, 1 mM EDTA, and 20 μM butylated hydroxytoluene, at pH = 7.4) using the Teflon-glass homogeniser (5–6 vertical passes). The samples were centrifuged at 10,000× g for 20 min. The supernatant was then transferred into another set of centrifuge tubes and spun at 100,000× g for 60 min. The pellet was resuspended in Buffer B (0.1 M potassium pyrophosphate, 1 mM EDTA, and 20 μM butylated hydroxytoluene, at pH = 7.4), homogenised, and recentrifuged at 100,000× g for 60 min. Finally, the pellet was homogenised in 1–2 mL of Buffer C (10 mM Tris-HCl, 1 mM EDTA, and 4% glycerol (v/v)), and stored at −80 °C until use. The protein concentration of the microsomes was determined using the bicinchoninic acid (BCA) method [77].
(§3) CYP3A catalytic activity was determined using the erythromycin N-demethylation activity assay, as described [78]. The reaction mixture (final volume of 1 mL and final protein concentration of 1 mg) contained 500 µL of microsomes in 0.1 M phosphate buffer (pH 7.4) and 400 µL of erythromycin buffer (0.45 mM), and 50 µL of the test compound was pre-warmed at 37 °C for 2 min. The reaction was initiated with 50 µL of 2.5 mM nicotinamide adenine dinucleotide phosphate (NADP^+) and incubated for 30 min at 37 °C. […] The tubes were vortexed and left for 5 min (at room temperature), and then 330 µL of saturated barium hydroxide was added. The tubes were further vortexed and left for 5 min (at room temperature). The tubes were then centrifuged at 1800× g for 10 min. To 830 µL of the supernatant, 330 µL of Nash reagent (30% (w/v) ammonium acetate, 0.4% (v/v) acetylacetone) was added and further incubated for 30 min at 60 °C. The blank tube contained 330 µL of Nash reagent and 830 µL of Milli-Q water. […] The CYP3A activities were determined in nmol/mg/min using standard curve data. Results presented are the mean ± SEM of 3 independent experiments performed in duplicate unless otherwise stated.

[7] = tested on: UGT2B (heading: UGT2B4); assay: in vitro; settings: avian (mallards and a swan), pH 7.4
[8] = tested on: CYP3A; assay: CYP3A catalytic activity (erythromycin N-demethylation) in mouse liver microsomes; settings: for Percent control catalytic activity at estimated IC50 / Percent control catalytic activity at estimated 2-fold IC50: mouse liver microsomes, initial screen n=1; for Percent control catalytic activity at estimated IC50: compounds without reported IC50 at 1 µM; for Percent control catalytic activity at estimated 2-fold IC50: compounds without reported IC50 at 5 µM; for % of control (catalytic activity at 2-fold IC50) / Catalytic activity at 2-fold IC50: mouse, compound at estimated 2-fold IC50 (5 µM where none reported)
[9] = tested on: UGT2B (heading: UGT2B4); assay: p-nitrophenol glucuronidation activity in possum liver microsomes; assay type: biochemical, possum (Trichosurus vulpecula); settings: possum (Trichosurus vulpecula)
[10] = tested on: UGT2B; assay: as above; assay type: biochemical, possum (Trichosurus vulpecula); settings: for % of control (UGT2B4 catalytic activity at 2-fold IC50) / UGT2B4 catalytic activity at 2-fold IC50: compound at estimated 2-fold IC50; for p-nitrophenol glucuronidation (UGT2B) activity, % of the control: at estimated IC50 and 2-fold IC50 values; for Glucuronidation Activities / Percent of Control: p-nitrophenol 0.625 mM
[11] = tested on: CYP3A; assay: CYP3A catalytic activity (erythromycin N-demethylation) in pooled human liver microsomes; settings: for % of control (catalytic activity at 2-fold IC50) / Catalytic activity at 2-fold IC50: compound at estimated 2-fold IC50 (5 µM where none reported); for activity at 30 min: human, pH 7.4, probe erythromycin, % of control (catalytic activity at IC50), compound at estimated IC50 (1 µM where none reported)
Method: as §3

[12] = tested on: CYP3A; settings: avian; compound at estimated 2-fold IC50 (5 µM where none reported)
Method: as §1, §2, §3

[13] = pooled human liver microsomes, compound at estimated 2-fold IC50
[14] = mouse, compound at estimated 2-fold IC50
[15] = liver microsomes, pH 7.4, probe p-nitrophenol (0.5 mM final, from 50 µL of 5 mM in 500 µL), compound at estimated IC50, read-out: % of control (UGT2B4 catalytic activity at IC50)
[16] = pH 7.4, compound at estimated IC50, read-out: % of control (UGT2B4 catalytic activity at IC50)

SMILES	activity at 30 min [1]	activity at 30 min ([3]; pH 7.4)	% of control (UGT2B4 catalytic activity at 2-fold IC50) [4, 14]	UGT2B4 catalytic activity at 2-fold IC50 [4, 14]	% of control (UGT2B4 catalytic activity at 2-fold IC50) [5]	UGT2B4 catalytic activity at 2-fold IC50 [5]	Percent control catalytic activity at estimated IC50 [6]	Percent control catalytic activity at estimated 2-fold IC50 [6]	activity at 30 min [7]	Percent control catalytic activity at estimated IC50 [8]	Percent control catalytic activity at estimated 2-fold IC50 [8]	% of control (UGT2B4 catalytic activity at 2-fold IC50) [10]	UGT2B4 catalytic activity at 2-fold IC50 [10]	activity at 30 min [11]	also measured
C[C@@H]1CC[C@H]2C(C)(C)[C@H]3C[C@@]12CC[C@@]3(C)O [Cedrol]	98%	84%	84 % of control	2.57 ± 0.16 µmol/mg/min	91 % of control	0.56 ± 0.13 µmol/mg/min	107 percent control	99 percent control	96%	90 percent control	62 percent control	92 % of control	3.78 ± 0.13 µmol/mg/min	–	% of control (UGT2B4 catalytic activity at 2-fold IC50) [2, 13]: 98 % of control; UGT2B4 catalytic activity at 2-fold IC50 [2, 13]: 3.85 µmol/mg/min; activity at 30 min [9, 15]: 93%
CC[C@H]1OC(=O)[C@H](C)[C@@H](O[C@H]2C[C@@](C)(OC)[C@@H](O)[C@H](C)O2)[C@H](C)[C@@H](O[C@@H]2O[C@H](C)C[C@H](N(C)C)[C@H]2O)[C@](C)(OC)C[C@@H](C)C(=O)[C@H](C)[C@@H](O)[C@]1(C)O [Clarithromycin]	–	120%	90 % of control	1.77 ± 0.12 µmol/mg/min	48 % of control	0.20 ± 0.08 µmol/mg/min	90 percent control	117 percent control	110%	89 percent control	81 percent control	96 % of control	3.51 ± 0.28 µmol/mg/min	95%	% of control (catalytic activity at 2-fold IC50) [11]: 91 % of control; Catalytic activity at 2-fold IC50 [11]: 0.59 nmol/mg/min; % of control (catalytic activity at 2-fold IC50) [6]: 103 % of control; Catalytic activity at 2-fold IC50 [6]: 0.43 ± 0.01 nmol/mg/min; % of control (catalytic activity at 2-fold IC50) [8]: 95 % of control; Catalytic activity at 2-fold IC50 [8]: 0.60 ± 0.09 nmol/mg/min; activity at 30 min [9, 16]: 108%; % of control (catalytic activity at 2-fold IC50) [12]: 94 % of control; Catalytic activity at 2-fold IC50 [12]: 0.41 ± 0.07 nmol/mg/min
CC(C)c1nc(CN(C)C(=O)N[C@@H](CCN2CCOCC2)C(=O)N[C@H](CC[C@H](Cc2ccccc2)NC(=O)OCc2cncs2)Cc2ccccc2)cs1 [Cobicistat]	110%	–	–	–	–	–	–	–	33%	–	–	–	–	–	activity at 30 min ([3]; liver microsomes, pH 7.4, probe p-nitrophenol (0.5 mM final, from 50 µL of 5 mM in 500 µL)): 104%
OC(Cn1cncn1)(Cn1cncn1)c1ccc(F)cc1F [Fluconazole]	112%	81%	–	–	–	–	107 percent control	–	224%	70 percent control	–	–	–	91%	activity at 30 min [9, 16]: 93%; p-nitrophenol glucuronidation (UGT2B) activity, % of the control [10]: > 65 % of the control
COc1cc(C2Oc3ccc([C@H]4Oc5cc(O)cc(O)c5C(=O)[C@@H]4O)cc3OC2CO)ccc1O (stereo partly drawn) [Isosilybin]	–	–	80 % of control	1.55 ± 0.19 µmol/mg/min	67 % of control	0.28 ± 0.11 µmol/mg/min	73 percent control	–	–	71 percent control	–	65 % of control	2.21 ± 0.17 µmol/mg/min	–	p-nitrophenol glucuronidation (UGT2B) activity, % of the control ([2]; pooled human liver microsomes, at estimated IC50 and 2-fold IC50 values): no significant inhibition; % of control (UGT2B4 catalytic activity at 2-fold IC50) [2, 13]: 107 % of control; UGT2B4 catalytic activity at 2-fold IC50 [2, 13]: 3.15 µmol/mg/min; % of control (UGT2B4 catalytic activity at IC50) ([2]; pooled human liver microsomes, compound at estimated IC50): 93 % of control; % of control (UGT2B4 catalytic activity at IC50) ([4]; mouse, compound at estimated IC50): 96 % of control; % of control (UGT2B4 catalytic activity at IC50) ([5]; compound at estimated IC50): 101 % of control; inhibitory potential on glucuronidation activity with varying concentrations of p-nitrophenol (substrate) ([10]; Table 1): no significant changes compared to their respective control activities; p-nitrophenol glucuronidation (UGT2B) activity, % of the control [10]: > 65 % of the control; % of control (UGT2B4 catalytic activity at IC50) ([10]; compound at estimated IC50): 78 % of control; Glucuronidation Activities ([10]; isosilybin 100 µM): 0.12 ± 0.09 µmol/mg/min; Percent of Control ([10]; isosilybin 100 µM): 63% of Control; Glucuronidation Activities ([10]; isosilybin 200 µM): 0.13 ± 0.05 µmol/mg/min; Percent of Control ([10]; isosilybin 200 µM): 67% of Control
CCC(C)n1ncn(-c2ccc(N3CCN(c4ccc(OCC5COC(Cn6cncn6)(c6ccc(Cl)cc6Cl)O5)cc4)CC3)cc2)c1=O (stereo not drawn) [Itraconazole]	95%	125%	–	–	94 % of control	0.35 ± 0.05 µmol/mg/min	141 percent control	120 percent control	118%	91 percent control	91 percent control	102 % of control	3.06 ± 0.25 µmol/mg/min	–	% of control (UGT2B4 catalytic activity at 2-fold IC50) [2]: 88; UGT2B4 catalytic activity at 2-fold IC50 [2]: 2.80 µmol/mg/min; % of control (UGT2B4 catalytic activity at 2-fold IC50) [4]: 106; UGT2B4 catalytic activity at 2-fold IC50 [4]: 1.99 ± 0.24 µmol/mg/min; activity at 30 min [9, 15]: 102%
COc1ccc(/C=C/c2cc(O)cc(O)c2)cc1O [Rhapontigenin]	–	–	–	–	–	–	103 percent control	103 percent control	–	116 percent control	157 percent control	–	–	106%	% of control (catalytic activity at 2-fold IC50) [11]: 110 % of control; Catalytic activity at 2-fold IC50 [11]: 0.53 nmol/mg/min; % of control (catalytic activity at 2-fold IC50) [6]: 124 % of control; Catalytic activity at 2-fold IC50 [6]: 0.40 ± 0.03 nmol/mg/min; % of control (catalytic activity at 2-fold IC50) [8]: 144 % of control; Catalytic activity at 2-fold IC50 [8]: 0.52 ± 0.05 nmol/mg/min; % of control (catalytic activity at 2-fold IC50) [12]: 101 % of control; Catalytic activity at 2-fold IC50 [12]: 0.30 ± 0.03 nmol/mg/min
